In BindingDB's records for doi:10.7270/Q2833QWM (D3R/Abbott, 2015):

These compounds were tested against T1, tRNA (guanine-N(1)-)-methyltransferase (Haemophilus influenzae (strain ATCC 51907 / DSM 11121 / KW20 / Rd), UniProt P43912) (assay: ScintillationProximity_Assay).
T1 sequence (P43912 whole entry): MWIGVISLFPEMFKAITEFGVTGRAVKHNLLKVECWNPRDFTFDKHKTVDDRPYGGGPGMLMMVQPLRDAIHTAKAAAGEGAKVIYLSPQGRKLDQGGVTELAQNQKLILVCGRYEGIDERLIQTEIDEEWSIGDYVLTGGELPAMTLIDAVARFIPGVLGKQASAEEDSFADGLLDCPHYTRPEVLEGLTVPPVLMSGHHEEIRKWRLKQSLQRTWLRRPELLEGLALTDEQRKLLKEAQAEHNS
Excerpt: ScintillationProximity_Assay

| SMILES | IC50 [nM] |
| --- | --- |
| CN(C)c1cccc(CNc2ccc(C(N)=O)cn2)c1 [GTC000453A] | 3980 |
| NC(=O)c1ccc(N[C@@H]2CC[C@@H](O)C2)nc1 [GTC000460A] | 200 |
| CC(C)(C)c1cccc(C(=O)NCC2(NC(=O)c3cccc4nocc34)CCCC2)c1 [GTC000450A] | 5.01 |
| COc1ccc(C(=O)n2ncnc2N)cc1 [GTC000473A] | 2510 |
| COc1ccccc1CNc1ccc(C(N)=O)cn1 [GTC000454A] | 794 |
| CC(C)(C)CNc1ncc(C(N)=O)c(N)n1 [GTC000474A] | 794 |
| Nc1nonc1C(=O)N1CCN(Cc2ccccn2)CC1 [GTC000463A] | 15800 |
| NC(=O)c1ccc(NCC2CCCC2)nc1 [GTC000458A] | 501 |
| NC(=O)c1ccc(N)nc1 [GTC000445A] | 25100 |
| CN1CCN(C(=O)c2nonc2N)CC1 [GTC000472A] | 100000 |
| NC[C@H]1CCC[C@@H](CNc2ccc(C(N)=O)cn2)C1 [GTC000469A] | 501 |
| NC(=O)c1ccc(NC2CCCC2)nc1 [GTC000457A] | 200 |
| CN1CCN(c2ccccc2CNc2ccc(C(N)=O)cn2)CC1 [GTC000471A] | 794 |
| Nc1nonc1C(=O)NCC1CCCCC1 [GTC000462A] | 2000 |
| Cc1cccc(C(=O)NCC2(NC(=O)c3cccc4nocc34)CCCC2)c1 [GTC000451A] | 158 |
| CC(C)(C)c1cccc(C(=O)NCC2(NC(=O)c3cccc4nocc34)CCCCC2)c1 [GTC000449A] | 5.01 |
| c1cc(-c2c[nH]cn2)ccn1 | 158000 |
| c1cc(-c2ncc[nH]2)ccn1 [GTC000447A] | 316000 |

The remaining compounds from weak to strong by IC50, led by results:

| IC50 [nM] | SMILES |
| --- | --- |
| 39800 | Nc1nonc1C(=O)NCc1ccc(Cl)cc1 [GTC000448A] |
| 20000 | Nc1nonc1C(=O)NC1CCNCC1 [GTC000465A] |
| 15800 | Nc1nonc1C(=O)N[C@@H]1C[C@H]1c1ccc(S(N)(=O)=O)cc1 [GTC000466A] |
| 7940 | Cc1cccc(C(=O)NCCC2(CNc3ccc(C(N)=O)cn3)CCCCC2)c1 [GTC000461A] |
| 7940 | Nc1nonc1C(=O)N[C@@H]1CC[C@H](O)C1 [GTC000456A] |
| 6310 | CN(C)c1ccccc1CNc1ccc(C(N)=O)cn1 [GTC000455A] |
| 3160 | NC(=O)c1ccc(NCc2ccccc2)nc1 [GTC000444A] |
| 2000 | NC(=O)c1ccc(NCc2ccccc2N2CCOCC2)nc1 [GTC000470A] |
| 2000 | NC(=O)c1ccc(NCc2cccc(O)c2)nc1 [GTC000452A] |
| 1590 | NC(=O)c1ccc(N[C@@H]2C[C@H](CO)[C@@H](O)C2)nc1 [GTC000468A] |
| 1260 | NC(=O)c1ccc(NCc2ccccc2O)nc1 [GTC000459A] |
| 631 | NC(=O)c1cnc(NC2CCCC2)nc1N [GTC000464A] |
| 631 | NC(=O)c1ccc(NC2CCC(c3ccccc3)C2)nc1 (stereo unspecified) [GTC000467A] |
